Experiments:
Assay type in all cases: in vivo
[1] = tested on: winter barley (Hordeum vulgare L; HORVW); test: Postemergence herbicidal safening in cereal crops, greenhouse, visual injury: winter barley; conditions: 20-22 d
Protocol: (§1) Evaluation of Postemergence Herbicidal Safening in Cereal Crops
(§2) Seeds of the desired test plant species were planted in Sun Gro MetroMix® 306 planting mixture, which typically has a pH of 6.0 to 6.8 and an organic matter content of about 30 percent, in plastic pots with a surface area of 103.2 square centimeters (cm^2). When required to ensure good germination and healthy plants, a fungicide treatment and/or other chemical or physical treatment was applied. The plants were grown for 7-36 days (d) in a greenhouse with an approximate 14-hour (h) photoperiod which was maintained at about 18° C. during the day and 17° C. during the night. Nutrients and water were added on a regular basis and supplemental lighting was provided with overhead metal halide 1000-Watt lamps as necessary. The plants were employed for testing when they reached the second or third true leaf stage.
(§3) Treatments consisted of the acids or esters of compounds 1-10 and cloquintocet-mexyl (CQC-M), fenchlorazole-ethyl, mefenpyr-diethyl alone and in combination. Weighed amounts of acid or methyl esters of the compounds of formula (I) were dissolved in a volume of 97:3 v/v acetone/dimethylsulfoxide (DMSO) to obtain concentrated solutions. […] The concentrated solutions of the test compound were diluted with the addition of an aqueous mixture containing acetone, water, isopropyl alcohol, DMSO, Agri-Dex crop oil concentrate, and Triton® X-77 surfactant in a 64.7:26.0:6.7:2.0:0.7:0.01 v/v ratio. Test compounds were diluted to the appropriate application rate with a dilution solution which was prepared by mixing the appropriate volume of 97:3 v/v acetone/DMSO and the appropriate volume of an aqueous mixture containing acetone, water, isopropyl alcohol, DMSO, Agri-Dex crop oil concentrate, and Triton® X-77 surfactant in a 64.7:26.0:6.7:2.0:0.7:0.01 v/v ratio. Compound requirements are based upon a 12 mL application volume at a rate of 187 liters per hectare (L/ha). The concentrated solutions of the safener were prepared following the same procedure. Weighed amounts of safener were dissolved in a volume of 97:3 v/v acetone/DMSO to obtain concentrated safener solutions.
(§4) Spray solutions of the herbicide safener and test compound mixtures were prepared by adding the concentrated solutions to the appropriate amount of dilution solution to form 12 mL spray solution with active ingredients in combinations.
(§5) Formulated compounds were applied to the plant material with an overhead Mandel track sprayer equipped with 8002E nozzles calibrated to deliver 187 L/ha over an application area of 0.503 square meters (m^2) at a spray height of 18 inches (43 centimeters (cm)) above average plant canopy. Control plants were sprayed in the same manner with the solvent blank.
(§6) The treated plants and control plants were placed in a greenhouse as described above and watered by sub-irrigation to prevent wash-off of the test compounds. After 20-22 d, the condition of the test plants as compared with that of the control plants was determined visually and scored on a scale of 0 to 100 percent where 0 corresponds to no injury and 100 corresponds to complete kill.
(§7) Colby's equation was used to determine the herbicidal effects expected from the mixtures (Colby, S. R. Calculation of the synergistic and antagonistic response of herbicide combinations. Weeds 1967, 15, 20-22.).
(§8) The following equation was used to calculate the expected activity of mixtures containing two active ingredients, A and B: Expected=A+B−(A×B/100)
(§9) A=observed efficacy of active ingredient A at the same concentration as used in the mixture.
(§10) B=observed efficacy of active ingredient B at the same concentration as used in the mixture.

[2] = tested on: kochia (Kochia scoparia L; KCHSC); test: Postemergence herbicidal activity, greenhouse, visual injury: kochia; conditions: for KCHSC Ob (visual injury): 20-22 d
Protocol: as §1, §2, §3, §4, §5, §6, §7, §8, §9, §10

[3] = tested on: spring barley (Hordeum vulgare L; HORVS); test: Postemergence herbicidal safening in cereal crops, greenhouse, visual injury: spring barley
Protocol: as §1, §2, §3, §4, §5, §6, §7, §8, §9, §10

[4] = tested on: corn poppy (Papaver rhoeas L; PAPRH); test: Postemergence herbicidal activity, greenhouse, visual injury: corn poppy; conditions: for PAPRH Ob (visual injury): 20-22 d
Protocol: as §1, §2, §3, §4, §5, §6, §7, §8, §9, §10

[5] = tested on: MATCH; test: Postemergence herbicidal activity, greenhouse, visual injury: MATCH; conditions: for MATCH Ob (visual injury): 20-22 d
Protocol: as §1, §2, §3, §4, §5, §6, §7, §8, §9, §10

[6] = tested on: wild mustard (Sinapis arvensis L.; SINAR); test: Postemergence herbicidal activity, greenhouse, visual injury: SINAR
[7] = tested on: GALAP; test: Postemergence herbicidal activity, greenhouse, visual injury: GALAP; conditions: 20-22 d
Protocol: as §1, §2, §3, §4, §5, §6, §7
(§11) The following equation was used to calculate the expected activity of mixtures containing two active ingredients, A and B: Expected=A+B−(A×B/100) […]

[8] = tested on: AMARE; test: Postemergence herbicidal activity, greenhouse, visual injury: AMARE; conditions: 20-22 d
Protocol: as §1, §2, §3, §4, §5, §6, §7, §11

[9] = tested on: purple deadnettle (Lamium purpureum L; LAMPU); test: Postemergence herbicidal activity, greenhouse, visual injury: purple deadnettle
Protocol: as §1, §2, §3, §4, §5, §6, §7, §8, §9, §10

[10] = tested on: SASKR; test: Postemergence herbicidal activity, greenhouse, visual injury: SASKR; conditions: for SASKR Ob (visual injury): 20-22 d
Protocol: as §1, §2, §3, §4, §5, §6, §7, §8, §9, §10

[11] = tested on: spring wheat (Triticum aestivum L; TRZAS); test: Postemergence herbicidal safening in cereal crops, greenhouse, visual injury: spring wheat
Protocol: as §1, §2, §3, §4, §5, §6, §7, §8, §9, §10

[12] = Compound 10 0, CQC-M 8.75 g ae/ha
[13] = Compound 10 0, CQC-M 17.5 g ae/ha
[14] = Compound 10 0, CQC-M 35 g ae/ha
[15] = Compound 10 0, CQC-M 70 g ae/ha
[16] = Compound 10 0, CQC-M 140 g ae/ha

CCCCCC(C)OC(=O)COc1ccc(Cl)c2cccnc12 (stereo not shown) [CQC-M, cloquintocet-mexyl, reference compound]
0%: HORVW Ob (visual injury) ([1]; safener alone 0.547 g/ha) | HORVW Ob (visual injury) ([1]; safener alone 2.1875 g/ha) | HORVW Ob (visual injury) ([1]; safener alone 8.75 g/ha) | HORVW Ob (visual injury) ([1]; safener alone 35 g/ha) | HORVW Ob (visual injury) ([1]; safener alone 70 g/ha) | HORVW Ob (visual injury) ([1]; safener alone 140 g/ha) | KCHSC Ob (Observed values, % control) [2, 12] | KCHSC Ob (Observed values, % control) [2, 13] | KCHSC Ob (Observed values, % control) [2, 14] | KCHSC Ob (Observed values, % control) [2, 15] | KCHSC Ob (Observed values, % control) [2, 16] | KCHSC Ob (visual injury) ([2]; safener alone 8.75 g/ha) | KCHSC Ob (visual injury) ([2]; safener alone 70 g/ha) | KCHSC Ob (visual injury) ([2]; safener alone 140 g/ha) | pest or weed control at 0.547 g/ha ([3]; Hordeum vulgare, post-emergence, 480 h, safener alone 0.547 g/ha, 20-22 d, read-out: HORVS Ob (visual injury)) | pest or weed control at 2.1875 g/ha ([3]; Hordeum vulgare, post-emergence, 480 h, safener alone 2.1875 g/ha, 20-22 d, read-out: HORVS Ob (visual injury)) | pest or weed control at 8.75 g/ha ([3]; Hordeum vulgare, post-emergence, 480 h, safener alone 8.75 g/ha, 20-22 d, read-out: HORVS Ob (visual injury)) | HORVS Ob (Observed values, % control) ([3]; in vivo) | PAPRH Ob (Observed values, % control) [4, 12] | PAPRH Ob (Observed values, % control) [4, 13] | PAPRH Ob (Observed values, % control) [4, 14] | PAPRH Ob (Observed values, % control) [4, 15] | PAPRH Ob (Observed values, % control) [4, 16] | PAPRH Ob (visual injury) ([4]; safener alone 8.75 g/ha) | PAPRH Ob (visual injury) ([4]; safener alone 70 g/ha) | PAPRH Ob (visual injury) ([4]; safener alone 140 g/ha) | MATCH Ob (Observed values, % control) [5, 12] | MATCH Ob (Observed values, % control) [5, 13] | MATCH Ob (Observed values, % control) [5, 14] | MATCH Ob (Observed values, % control) [5, 15] | MATCH Ob (Observed values, % control) [5, 16] | MATCH Ob (visual injury) ([5]; safener alone 70 g/ha) | MATCH Ob (visual injury) ([5]; safener alone 140 g/ha) | SINAR Ob (Observed values, % control) [6, 12] | SINAR Ob (Observed values, % control) [6, 13] | SINAR Ob (Observed values, % control) [6, 14] | SINAR Ob (Observed values, % control) [6, 15] | SINAR Ob (Observed values, % control) [6, 16] | GALAP Ob (visual injury) ([7]; safener alone 35 g/ha) | GALAP Ob (visual injury) ([7]; safener alone 70 g/ha) | GALAP Ob (visual injury) ([7]; safener alone 140 g/ha) | AMARE Ob (visual injury) ([8]; safener alone 35 g/ha) | AMARE Ob (visual injury) ([8]; safener alone 70 g/ha) | AMARE Ob (visual injury) ([8]; safener alone 140 g/ha) | LAMPU Ob (Observed values, % control) [9, 12] | LAMPU Ob (Observed values, % control) [9, 13] | LAMPU Ob (Observed values, % control) [9, 14] | LAMPU Ob (Observed values, % control) [9, 15] | LAMPU Ob (Observed values, % control) [9, 16] | pest or weed control at 35 g/ha ([9]; Lamium purpureum, post-emergence, 480 h, safener alone 35 g/ha, 20-22 d, read-out: LAMPU Ob (visual injury)) | pest or weed control at 140 g/ha ([9]; Lamium purpureum, post-emergence, 480 h, safener alone 140 g/ha, 20-22 d, read-out: LAMPU Ob (visual injury)) | SASKR Ob (Observed values, % control) [10, 12] | SASKR Ob (Observed values, % control) [10, 13] | SASKR Ob (Observed values, % control) [10, 14] | SASKR Ob (Observed values, % control) [10, 15] | SASKR Ob (Observed values, % control) [10, 16] | SASKR Ob (visual injury) ([10]; safener alone 70 g/ha) | SASKR Ob (visual injury) ([10]; safener alone 140 g/ha) | pest or weed control at 0.547 g/ha ([11]; Triticum aestivum, post-emergence, 480 h, safener alone 0.547 g/ha, 20-22 d, read-out: TRZAS Ob (visual injury)) | pest or weed control at 2.1875 g/ha ([11]; Triticum aestivum, post-emergence, 480 h, safener alone 2.1875 g/ha, 20-22 d, read-out: TRZAS Ob (visual injury)) | pest or weed control at 8.75 g/ha ([11]; Triticum aestivum, post-emergence, 480 h, safener alone 8.75 g/ha, 20-22 d, read-out: TRZAS Ob (visual injury)) | pest or weed control at 35 g/ha ([11]; Triticum aestivum, post-emergence, 480 h, safener alone 35 g/ha, 20-22 d, read-out: TRZAS Ob (visual injury)) | pest or weed control at 140 g/ha ([11]; Triticum aestivum, post-emergence, 480 h, safener alone 140 g/ha, 20-22 d, read-out: TRZAS Ob (visual injury)) | TRZAS Ob (Observed values, % control) ([11]; in vivo)
